Test results from patent publication US20210299039A1, “COMPOSITIONS AND METHODS FOR TREATING OCULAR DISEASE BY CONTACT LENS MEDIATED DRUG DELIVERY” (EyeGate Pharmaceuticals, Inc., priority 2020, published 2021).

Assays:
[1] = Drug loading by soaking hydrogel discs in drug solution (weight gain); assay type: physicochemical; details: 48-hour soak, HEMA-based discs with 15% MPMA vs without; FIG. 5
Description: The HEMA-based hydrogels of formulation 5 in Table 1, were made with and without 15% MPMA. Unreacted components were extracted by washing in DI water for at least 3 hours, followed by washing in a 50:50 mixture of reagent alcohol and DI water for at least 3 hours, then washing again in DI water for at least 3 hours. Discs 15 mm in diameter were punched out and dried in a vacuum dessicator for at least 72 hours. The dry discs were weighed to get an initial weight without drug. Discs were then placed in a drug solution for 48 hours on a shaker at 200 rpm. Drug solutions used in this study can be found in Table 2. After 48 hours, the discs were removed from the drug solution, patted with a Kimwipe to remove solution from the surface, and then dried in a vacuum dessicator for at least 48 hours. The dry drug-loaded discs were weighed, and the amount of drug loaded was determined as the drug-loaded disc weight minus the initial weight.

[2] = Drug release into PBS and extraction from HEMA-based hydrogel discs; assay type: physicochemical; details: for effect of MPMA on total amount of drug released and extracted: HEMA-based discs with MPMA vs without, FIG. 7; for effect of MPMA on release over time: HEMA-based material with vs without MPMA, FIGS. 10 and 11
Description: At 0.5, 1, 2, 4, 6, and 8 hours the PBS was removed and fresh PBS was added.

[3] = Loss of crosslinked-in dexP during extraction washes (HPLC-UV); assay type: physicochemical; details: formulation 4 hydrogels with MPMA compared to without MPMA; FIG. 4
Description: Hydrogels were placed in deionized (DI) water for 35 minutes at 37° C./200 rpm, followed by 3 times in isopropyl alcohol for 25 minutes each at 37° C./200 rpm, then 2 additional times in DI water for 25 minutes each.

[4] = dexP release from silicone-based hydrogel discs into PBS; assay type: physicochemical
From the text: Silicone-based hydrogels similar to formulation 2 in Table 1, but with only 1% EGDMA, were made with and without 15% MPMA. Unreacted components were extracted as described in Example 4.

[5] = In vitro drug release into and across sclera tissue (Franz cell); assay type: in vitro ADME, Porcine; details: 4 minutes, 4 hours, 8 hours; HPLC-UV; FIG. 13
From the text: An experimental setup (shown in FIG. 12) for determining drug release from a soft contact lens hydrogel disc into and across sclera tissue was created using a glass Franz cell. The Franz cell was filled with PBS. A cell strainer (BD Falcon, […] nylon, 23 mm ID) was fitted onto the Franz cell as a framework to hold the sclera and hydrogel disc together. Porcine sclera tissue (21 mm diameter, 1 mm thick) was placed in the cell strainer, the drug-loaded hydrogel disc was placed onto the sclera tissue, and a glass bottle was placed on top of the disc to firmly hold the assembly together in the cell strainer. At 4 minutes, 4 hours, or 8 hours, the sclera tissue was removed and a sample of the PBS from the Franz cell was taken. The sclera tissue was digested using collagenase, and the amount of dexP in the digested sclera tissue and PBS was determined using HPLC-UV.

[6] = rabbit, in vivo
Description: Following sterilization, lenses were handled aseptically. […] Control (drug-free) lenses were soaked and then stored (at 4° C.) in sterile isotonic saline until use. Controls were used only for retention and ocular health assessments.
A total of 11 New Zealand White rabbits were used in this study: 2 animals were in the control group and 9 animals in the treatment group. The nictitating membranes of the rabbits were removed and the rabbits allowed to recover for 2 weeks prior to study initiation. For the study, a contact lens was placed on each eye of an animal and a tarsorrhaphy performed by placing a single staple in the corner of the eyelids to aid in retention of the contact lenses. Cage side observations of the animals occurred every 2 hours to monitor lens retention and ocular health. At 2, 4, and 8 hours following lens placement, 3 animals in the treatment group were euthanized, the staple and contact lens from each eye were removed, and ocular health was noted. The following tissues were then isolated: aqueous humor (AH), vitreous humor (VH), retina, choroid, cornea, conjunctiva, and sclera. The aqueous humor was retrieved from each eye using a sterile 30-gauge needle on a 1 mL syringe while the eyes were still intact in the animal. Tissues were transferred to pre-weighed, pre-labeled tubes in a box of dry ice. […]

[7] = Formulation 3
Description: HEMA-based hydrogels were prepared as described in Example 4 using Formulation 3.

NC[C@H]1O[C@H](O[C@H]2[C@H](O)[C@@H](O[C@H]3O[C@H](CO)[C@@H](O)[C@H](N)[C@H]3O)[C@H](N)C[C@@H]2N)[C@H](N)C[C@@H]1O [Tobramycin]
effect of MPMA on amount of drug loaded [1]: did not affect loading | effect of MPMA on total amount of drug released and extracted [2]: significantly decreased the amount of drug released and extracted | effect of MPMA on release over time [2]: significantly reduced

C[C@]12C=CC(=O)C=C1CC[C@@H]1[C@@H]2[C@@H](O)C[C@@]2(C)[C@H]1CC[C@]2(O)C(=O)COP(=O)(O)O [predP, Prednisolone phosphate]
effect of MPMA on amount of drug loaded [1]: significantly increased the amount of drug loaded | effect of MPMA on total amount of drug released and extracted [2]: significantly greater

C[C@@H]1C[C@H]2[C@@H]3CCC4=CC(=O)C=C[C@]4(C)[C@@]3(F)[C@@H](O)C[C@]2(C)[C@@]1(O)C(=O)COP(=O)(O)O [dexP, dexamethasone phosphate]
amount of incorporated dexP removed during water and alcohol washes [3]: very little of the incorporated dexP was removed | effect of MPMA on amount of drug loaded [1]: significantly increased the amount of drug loaded | total amount of dexP released ([4]; silicone-based discs with 15% MPMA vs without, initial soak, release in PBS, FIG. 6A): significantly greater | amount of dexP released after re-loading ([4]; silicone-based discs with MPMA vs without, re-soaked overnight, FIG. 6B): greater amount of dexP release | effect of MPMA on total amount of drug released and extracted [2]: significantly greater | amount of dexP in sclera tissue and PBS reservoir [5]: increasing amount of dexP in the sclera tissue and PBS over time | detection in ocular tissues [6]: detected in the tissues of treated animals at each timepoint | drug reaching the back of the eye [6]: drug concentrations observed in the VH, retina, and choroid

Cc1ncc([N+](=O)[O-])n1CCO [Metronidazole]
effect of MPMA on amount of drug loaded [1]: did not affect loading | total amount of drug released and extracted compared between drugs ([2]; 10 mg/ml soaking solution for metronidazole vs 40 mg/ml for the other drugs): lower than for dexP and predP | effect of MPMA on total amount of drug released and extracted [2]: did not affect the amount released and extracted | effect of MPMA on release over time [2]: very little effect

C[C@@H]1C[C@H]2[C@@H]3CCC4=CC(=O)C=C[C@]4(C)[C@@]3(F)[C@@H](O)C[C@]2(C)[C@@]1(O)C(=O)COP(=O)([O-])[O-].[Na+].[Na+] [disodium dexP]
loading of dexP, disodium form compared to free acid form ([7]; 7 days soak in 40 mg/ml solution, FIG. 16): decreased loading and release | release of dexP, disodium form compared to free acid form ([7]; PBS up to 8 hours, FIG. 17): decreased loading and release
